Where two headings read alike, the source gives them in different places.

For assay [1], the system named is subjects with Relapsing-Remitting Multiple Sclerosis (RRMS).
Procedure: The study is designed to select three days a week for injection. Three injections are administered for every seven days and there must be at least one day between each injection.
Eligible subjects are randomized in a 2:1 ratio (40 mg:placebo) and assigned to one of the following three treatment arms: • 1. […] Matching placebo three times weekly (450 subjects)
During the PC phase, subjects are evaluated at study sites for a total of 7 scheduled visits at months: −1 (screening), 0 (baseline), 1, 3, 6, 9, and 12 (End of PC phase).
During the study, the following assessments are performed (regardless of the treatment assignment) at the specified time points: • Vital signs are measured at each study visit. • A physical examination is performed at months −1 (screening), 0 (baseline) 6, 12 (end of PC phase) and every 6 months thereafter. In addition, a physical examination will be performed at the termination visit of the OL phase. • The following safety clinical laboratory tests are performed: • Complete blood count (CBC) with differential—at all scheduled visits in the PC phase, and every 12 months thereafter. In addition this test will be performed at the termination visit of the OL phase. • Serum chemistry (including electrolytes, creatinine, urea and liver enzymes) and urinalysis—at all scheduled visits in the PC phase, and every 12 months thereafter. In addition this test will be performed at the termination visit of the OL phase. • Serum β-hCG in women of child-bearing potential is performed at months −1 (screening), 0 (baseline), 12 (end of PC phase), and every 12 months thereafter. In addition this test will be performed at the termination visit of the OL phase. • ECG is performed at months −1 (screening), 0 (baseline), 12 (end of PC phase), and every 12 months thereafter. In addition an ECG will be performed at the termination visit of the OL phase. • Chest X-ray is performed at month −1 (screening) if not performed within 6 months prior to screening visit. • Adverse Events (AEs) are monitored throughout the study. • Concomitant Medications are monitored throughout the study. • Neurological evaluations, including Neurostatus [Functional Systems (FS), Expanded Disability Status Scale (EDSS), Ambulation Index (AI)] are performed at months −1 (screening), 0 (baseline), 3, 6, 9, 12 (end of PC phase) and every 6 months thereafter. In addition, a neurological examination are performed at the termination visit of the OL phase. • The general health status is assessed by the EuroQoL (EQ5D) questionnaire at months 0 (baseline) and 12 (end of PC phase). • Additional quality of life parameters are assessed by the WPAI (Work Productivity and Activities Impairment) Questionnaire at month 0 (baseline), 3, 6, 9 and 12 (end of PC phase). • All subjects undergo MRI scans at months 0 (13-7 days prior to baseline visit), 6 and 12 (end of PC phase). Following the results of the PC phase, the Sponsor may decide to perform an MRI scan at the termination visit of the OL phase. • Relapses are confirmed/monitored throughout the study.
Route and Dosage Form: • Glatiramer Acetate 40 mg in 1 ml for subcutaneous injection in a pre-filled syringe (PFS), administered three times a week. • Matching placebo injection (mannitol in 1 ml WFI) for subcutaneous injection in a pre-filled syringe (PFS). Outcome Measures: Primary Outcome Measure: • The total number of confirmed relapses during the 12 month PC phase.
Assay [2] concerns patients who have experienced a clinically isolated syndrome (CIS). Conditions: 20 mg daily s.c. injection; PCT/US2008/013146; cited from earlier work.
Assay [3] shares this test system. The conditions noted are these: three s.c. injections over a period of seven days with at least one day between every injection.
The next assay has as its system MS patients. Conditions: 20 mg/day subcutaneous (s.c.) dose; cited from earlier work.
A further assay deals with MS. Conditions: controlled clinical trials; cited from earlier work.
Setting [4] is: 40 mg s.c. three times weekly compared with 20 mg s.c. GA daily administration.
Where [5] appears, read: 40 mg s.c. three times weekly vs placebo.

Turning to “L-glutamic acid polymer with L-alanine, L-lysine, L-tyrosine, acetate (salt) [GA]”, the “reduction of subject population annualized relapse rate” value in assay [1] (40 mg s.c. three times weekly compared to the placebo group, RRMS subjects) is reported as not below 30%. Besides, in assay [1] (setting [4]), the “increasing the proportion of relapse-free subjects during the placebo-controlled phase” value is reported as “at least as effective as 20 mg s.c. GA daily administration”; the “increasing the time to the first confirmed relapse during the placebo-controlled phase” value was “at least as effective as 20 mg s.c. GA daily administration”; the “reducing the change from baseline to month 12 (end of placebo-controlled phase) in EDSS Score” value was “at least as effective as 20 mg s.c. GA daily administration”; the “reducing the cumulative number of enhancing lesions on T1-weighted images taken at months 6 and 12” value is given as “at least as effective as 20 mg s.c. GA daily administration”. Moreover, in assay [1] (setting [4]), the “reducing the level of disability as measured by EDSS Score” value is “at least as effective as 20 mg s.c. GA daily administration”; the “reducing the level of disability as measured by EuroQoL (EQ5D) questionnaire” value is listed as “at least as effective as 20 mg s.c. GA daily administration”; the “reducing the level of disability as measured by the work productivity and activities impairment-General Health (WPAI-GH) questionnaire” value is “at least as effective as 20 mg s.c. GA daily administration”; the “reducing the number of new T2 lesions at month 12” value is “at least as effective as 20 mg s.c. GA daily administration”. In assay [1] (setting [4]), the “reducing the number of new hypointense lesions on enhanced T1 scans at month 12 as compared to the baseline scan” value was “at least as effective as 20 mg s.c. GA daily administration”, the “reducing the progression of MRI-monitored disease activity in the patient” value is “at least as effective as 20 mg s.c. GA daily administration”, the “reducing the subject population annualized relapse rate” value is “at least as effective as 20 mg s.c. GA daily administration” and the “reducing the total number of confirmed relapses during the placebo-controlled phase requiring hospitalization and/or IV steroids” value was “at least as effective as 20 mg s.c. GA daily administration”. The “reducing proportion (%) of subjects with confirmed EDSS progression during the placebo-controlled phase” value in assay [1] (40 mg s.c. three times weekly compared with 20 mg s.c. GA daily administration, progression of at least 1 EDSS point sustained for at least 3 months) was “at least as effective as 20 mg s.c. GA daily administration”. Besides, in assay [1] (setting [5]), the “change from baseline to month (end of placebo-controlled phase) in EDSS Score” value was “significantly reduces”; the “cumulative number of enhancing lesions on T1-weighted images taken at months 6 and 12” value is reported as “significantly reduces”; the “level of disability as measured by EDSS Score” value was “significantly reduces”; the “level of disability as measured by EuroQoL (EQ5D) questionnaire” value was “significantly reduces”. Also, in assay [1] (setting [5]), the “level of disability as measured by the work productivity and activities impairment-General Health (WPAI-GH) questionnaire” value was “significantly reduces”; the “number of new T2 lesions at month 12” value is on record as “significantly reduces”; the “number of new hypointense lesions on enhanced T1 scans at month 12 as compared to the baseline scan” value is reported as “significantly reduces”; the “progression of MRI-monitored disease activity in the patient” value is listed as “significantly reduces”. Also, in assay [1] (setting [5]), the “proportion of relapse-free subjects during the placebo-controlled phase” value is listed as “significantly increases”, the “time to the first confirmed relapse during the placebo-controlled phase” value is recorded as “significantly increases” and the “total number of confirmed relapses during the placebo-controlled phase requiring hospitalization and/or IV steroids” value is recorded as “significantly reduces”. The “proportion (%) of subjects with confirmed EDSS progression during the placebo-controlled phase” value in assay [1] (40 mg s.c. three times weekly vs placebo, progression of at least 1 EDSS point sustained for at least 3 months) is “significantly reduces”. In assay [2], the “efficacy in treatment of patients who have experienced a clinically isolated syndrome (CIS)” value is “has been shown to work”. Also, the “efficacy in treatment of patients who have experienced a clinically isolated syndrome (CIS)” value in assay [3] is “expected to work”. In the assay with MS patients, the “total number of enhancing lesions in MS patients as measured by MRI” value is recorded as “has been shown to reduce”.

B1: IFNβ-1b: immunomodulator (IFNβ 1b) whose efficacy in MS was shown in controlled clinical trials (protein, UniProt P01574 22-187, looked up, variant C17S)
Interferon beta: MSYNLLGFLQRSSNFQSQKLLWQLNGRLEYCLKDRMNFDIPEEIKQLQQFQKEDAALTIYEMLQNIFAIFRQDSSSTGWNETIVENLLANVYHQINHLKTVLEEKLEKEDFTRGKLMSSLHLKRYYGRILHYLKAKEYSHCAWTIVRVEILRNFYFINRLTGYLRN
Regarding B1, the “efficacy in the treatment of MS” value with MS is “demonstrated the efficacy”.

The record behind these values is patent publication US9155776B2, “Low frequency glatiramer acetate therapy” (Yeda Research & Development Co., Ltd., priority 2009, dated 2015).
